In patent publication US9782522B2, “Compositions and methods for treating and preventing neointimal stenosis” (Yale University, priority 2011, dated 2017):

Assays:
TEVG stenosis = assay: Tissue-engineered vascular graft (TEVG) stenosis model; type: in vivo, mice
Excerpt: Scaffolds were constructed from a nonwoven polyglycolic acid (PGA) mesh (Concordia Fibers) and a co-polymer sealant solution of poly-L-lactide and -ε-caprolactone (P(CL/LA)) as previously described (Roh J D, et al. Biomaterials. 29(10):1454 (2008)). For scaffold seeding studies, bone marrow was collected from the femurs of syngeneic C57BL/6 mice. Following purification of the mononuclear cell component using Histopaque-1086 (Sigma) centrifugation, one million mononuclear cells were manually pipetted onto the scaffold. The seeded scaffold was incubated in RPMI 1640 Medium (Gibco) overnight prior to implantation as previously described (Roh J D, et al. Biomaterials. 29(10):1454 (2008)).
sFGFR1-IIIc adenovirus was previously described (Murakami M, et al. J Clin Invest. 118(10):3355 (2008)) at a dose of 5×10^10 viral particles per mouse 1 week prior to TEVG implantation by tail vein injection. Control mice were given equivalent volumes of sterile PBS. Serum level of sFGFR1-IIIc was measured by a Human IgG Subclass Profile kit (Invitrogen).
Mice treated with TGFβRI kinase inhibitor were treated with SB431542 hydrate (Sigma) in DMSO given by intraperitoneal injection twice a day from post-operative day 0 to post-operative day 14 at a dose of 10 mg/kg. Control mice were treated with equivalent volumes of sterile DMSO.
Explanted grafts were pressure fixed in 10% formalin overnight and then embedded in paraffin or glycolmethacrylate using previously published methods (Roh J D, et al. Proc Natl Acad Sci USA. 107(10):4669 (2010)). Sections were stained with H&E or Gomori Trichrome. Graft luminal diameters were measured using ImageJ software. Stenosis was defined as greater than 50% decrease in luminal diameter. Critical stenosis was defined as 80% narrowing of the luminal diameter. Graft occlusion was defined as 100% narrowing of the luminal diameter. For EM studies scaffolds were cut into 0.5 mm thick cross-sections and imaged on a […] scanning electron microscope (Hillsboro) as previously described (Roh J D, et al. Biomaterials. 29(10):1454 (2008)). TGFβ positive cell area was measured using ImageJ software. Two separate sections of each explant were counterstained with hematoxalin and imaged at 400× magnification. The number of nuclei was then counted in five regions of each section and averaged. LacZ/SMA colocalized cells were quantified in the same manner using double immunofluorescent staining imaged under 60× confocal magnification.

[1] = SB-431542 release from microparticles and scaffolds; type: physicochemical
Experimental: Total encapsulation was approximated as the amount of SB-431542 released over a 14-day period. Percent encapsulation efficiency was calculated as total encapsulation divided by maximum theoretical encapsulation. 5 mg of avidin-coated PLGA microparticles containing SB-431542, PGA-P(CL/LA) trimmed scaffolds and treated with pLLB and SB-431542-eluting microparticles as above, and SB-431542-eluting PGA-P(CL/LA) trimmed scaffolds were incubated with PBS in triplicate on a rotary shaker at 37° C. Samples were removed at specific time points and centrifuged at 13200 RPM for 10 minutes. 300 μl of supernatant was drawn and replaced with 300 μl PBS. Concentration of SB-431542 in supernatant diluted with 600 μl PBS was determined by spectrophotometry at 320 nm.

3T3 human fibroblasts = assay: Bioactivity of encapsulated SB-431542 (phosphorylated SMAD-2 after TGF-β1); type: cell-based
Experimental: SB-431542 was released into 1 ml PBS from 10 mg avidin-coated PLGA microparticles and one untrimmed SB-431542-eluting PGA-P(CL/LA) scaffold in 2 ml microcentrifuge tubes at 37° C. At 48 hours, samples were centrifuged at 13200 RPM for 10 minutes, supernatants were collected and analyzed by spectrophotometry at 320 nm. SB-431542 concentrations were adjusted to 10 μM by dilution with PBS. 3T3 human fibroblasts were plated at 500,000/well and stimulated at confluence with 700 ul 10 μM SB-431542 in PBS eluted from particles or scaffolds, a stock solution of 10 or 1 μM SB-431542 containing <1% DMSO, or PBS. After 30 minutes at 37° C., cells were washed and stimulated with 200 ul 2 ng/ml recombinant human TGF-β1 (BD Biosciences) for 1 hour at 37 C. Cells were lysed and protein samples were separated by gel electrophoresis with a 12% polyacrylamide gel and probed with primary antibody to phosphorylated SMAD-2 (ser426/ser428, Cell Signaling Technology) and secondary goat anti-rabbit IgG (Cell Signaling Technology). The gel was stripped and reprobed with anti-SMAD2/3 as a loading control.

[2] = test system: constitutively active ALK-4, ALK-5, and ALK-7; set-up: dose or concentration left out as unconfirmed; conditions: transfected NIH 3T3 cells; cited from earlier work
ALK-1, -2, -3, and -6 = conditions: cited from earlier work
[3] = Tie2-CreXRosa26 mice, 10 mg/kg twice daily intraperitoneal for 2 weeks, vs DMSO
[4] = inhibitor added to the solvent used to make the grafts

## NC(=O)c1ccc(-c2nc(-c3ccc4c(c3)OCO4)c(-c3ccccn3)[nH]2)cc1 [SB431542, 4-[4-(1,3-Benzodioxol-5-yl)-5-(2-pyridinyl)-1H-imidazol-2-yl]-benzamide]
TEVG stenosis; [3]
  TEVG luminal diameter: significantly increases
  graft patency: significantly increases
TEVG stenosis; Tie2 lineage-tracing mice, drug treated
  LacZ-positive smooth muscle cells in occluded grafts: significant reduction
TEVG stenosis; local drug delivery (drug in microparticles, drug in solvent), 2 weeks, unseeded grafts, mouse model
  Patency: significantly increases
TEVG stenosis; local drug delivery, unseeded grafts, mouse model
  neotissue creation: enabled neotissue creation
TEVG stenosis; systemic treatment, 10 mg/kg twice daily intraperitoneal
  neotissue creation (CD31 positive endothelial layer lining SMA positive smooth muscle layer): proper neotissue creation
[1]; PLGA microparticle system tethered to TEVG scaffold, full 2-week time course
  Release of the drug: steady release
[1]; [4]
  Release profile: favorable release profile
3T3 human fibroblasts; [4]
  Biologic activity of the released drug: continued biologic activity
3T3 human fibroblasts; microparticle system
  Biologic activity of the released drug: maintains its biologic activity
[2]
  Phosphorylation of Smad2 by constitutively active ALK-4, ALK-5, and ALK-7: completely abolished
ALK-1, -2, -3, and -6
  Effect on ALK-1, -2, -3, and -6 and hence BMP signaling: without effect
